The values that follow come from US12527775B2 (priority 2020, dated 2026).

Molecules are shown by their SMILES. pKi: −log10 of the molar value. Like-named read-outs stand apart in the source and are kept apart here.

In assay [1] the target is human recombinant 5-HT2A receptor (Homo sapiens (Human), UniProt P28223). The assay can be described thus: biochemical. It counts as binding. As for the experimental part:
Test Example 1: 5-HT2A Receptor Binding Inhibition Test
(Each Experimental Condition)
Cell membrane: 15 μg of Jump-In HEK cell membrane (expressing human recombinant 5-HT2A receptor) per well
Assay buffer: Tris-HCl 50 mmol/L (pH 7.4) containing NaCl 120 mmol/L, MgCl2·6H2O 1 mmol/L, KCl 5 mmol/L, 0.1% BSA and CaCl2 2 mmol/L
Radioactive ligand: [^3H]-Ketanserin with a final concentration of 3 nmol/L
(§1) Non-specific ligand: Serotonin HCl with a final concentration of 500 μmol/L
(§2) The Kd value was calculated when the lot of cell membrane was changed. […] The radioactive ligand solution was serially diluted from 16 nM at a 2-fold ratio and the count was confirmed with a liquid scintillator. […] After that, filtration was performed with Cell harvester (PerkinElmer). The radioactive ligand solution was dispensed into an empty well of the GF/B UniFilter plate at 10 μL/well. […] The GF/B UniFilter plate was allowed to stand overnight at room temperature. […] The Saturation curve was drawn from the measured value, and the Kd value was calculated from the slope of the Scatchard Plot.
(§3) (Binding Test of the Compound According to the Present Invention)
(§4) After that, filtration was performed with Cell harvester (PerkinElmer).

In assay [2] the target is human recombinant 5-HT2C receptor (Homo sapiens (Human), UniProt P28335). Kind of assay: biochemical. The class given is binding. As for the experimental part: Test Example 2: 5-HT2C Receptor Binding Inhibition Test
human recombinant 5-HT2C receptor, sequence (P28335 whole entry, looked up): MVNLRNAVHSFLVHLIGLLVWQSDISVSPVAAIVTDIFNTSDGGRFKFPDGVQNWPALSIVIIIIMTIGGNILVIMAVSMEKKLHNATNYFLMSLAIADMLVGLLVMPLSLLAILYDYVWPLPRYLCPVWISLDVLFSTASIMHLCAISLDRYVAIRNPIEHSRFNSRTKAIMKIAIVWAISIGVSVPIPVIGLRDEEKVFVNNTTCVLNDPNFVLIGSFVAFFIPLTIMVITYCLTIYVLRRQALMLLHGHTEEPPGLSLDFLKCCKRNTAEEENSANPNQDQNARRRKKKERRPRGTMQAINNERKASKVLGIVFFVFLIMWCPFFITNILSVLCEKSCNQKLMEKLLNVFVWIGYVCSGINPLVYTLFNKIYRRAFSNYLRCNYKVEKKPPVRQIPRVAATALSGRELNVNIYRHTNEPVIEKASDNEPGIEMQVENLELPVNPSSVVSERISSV
(Each experimental condition)
Cell membrane: 0.5 μg of Jump-In HEK cell membrane (expressing human recombinant 5-HT2C receptor) per well
Assay buffer: Tris-HCl 50 mmol/L (pH 7.4) containing NaCl 120 mmol/L, MgCl2·6H2O 1 mmol/L, KCl 5 mmol/L, 0.1% BSA and CaCl2) 2 mmol/L
Radioactive ligand: [^3H]-Mesulergine with a final concentration of 1 nmol/L
as §1, §2, §3, §4

Where [3] appears, read: [3H]-Ketanserin 3 nmol/L, Jump-In HEK cell membrane, class symbols, read-out: h-5-HT2A Ki.
Setting [4] is: human serotonin 5-HT2C receptor binding, [3H]-Mesulergine, read-out: h-5-HT2C Ki.
The mark [5] stands for this setting: [3H]-Ketanserin 3 nmol/L, Jump-In HEK cell membrane, read-out: human serotonin 5-HT2A receptor binding activity, Ki.
The mark [6] stands for this setting: [3H]-Mesulergine 1 nmol/L, Jump-In HEK cell membrane, read-out: human serotonin 5-HT2C receptor binding activity, Ki.

Regarding `CC(C)COc1ccc(CNC(=O)N(Cc2ncccc2F)[C@@H]2CCN(C)C[C@@H]2F)cc1` (racemic) [Compound I-069], the pKi (usually −log10 of the Ki, conventionally taken in molar units) was 7.00 to 8.00 in assay [1] (setting [3]) and below 7.00 in assay [2] (setting [4]).
Regarding `CC(C)COc1ccc(CNC(=O)N(Cc2ncccc2F)[C@@H]2CCNC[C@@H]2F)cc1` (racemic) [Compound I-073], the pKi is 7.00 to 8.00 in assay [1] (setting [3]) and below 7.00 in assay [2] (setting [4]).
`CC(C)COc1ccc(CNC(=O)N(Cc2ccc(F)cn2)[C@H]2CCN(C)C[C@@H]2O)cc1` (racemic) [Compound I-088]: the figures for the pKi in assay [1] (setting [5]) and in assay [2] (setting [6]) were 7.59 and 6.87, respectively.
On to `CC(C)COc1ccc(CNC(=O)N(Cc2ccn(C)n2)C2CCNCC23CC3)cc1` (racemic) [Compound I-090], for which the pKi in assay [1] (setting [3]) and in assay [2] (setting [4]) was above 8.00 throughout.
On to `CC(C)COc1ccc(CNC(=O)N(Cc2ccc(F)cn2)C2CCNCC2(F)F)cc1` (racemic) [Compound I-091], for which the pKi in assay [1] (setting [3]) and in assay [2] (setting [4]) was above 8.00 each time.
With `CC(C)COc1ccc(CNC(=O)N(Cc2ccn(C)c2)[C@@H]2CCNC[C@@H]2F)cc1` (racemic) [Compound I-093], the pKi in assay [1] (setting [3]) and in assay [2] (setting [4]) was above 8.00 throughout.
For the molecule `Cc1cc(CN(C(=O)NCc2ccc(OCC(C)C)cc2)C2CCN(C)CC23CC3)nn1C` (racemic) [Compound I-094], the pKi in assay [1] (setting [3]) and in assay [2] (setting [4]) was above 8.00 in each case.
Consider `COc1ccc(CNC(=O)N(Cc2ccc(F)cn2)C2CCN(C)CC23CC3)cc1` (racemic) [Compound I-099], for which the pKi in assay [1] and in assay [2] was above 8.00 in each case.
For `Cc1ccc(CNC(=O)N(Cc2ccc(F)cn2)C2CCN(C)CC23CC3)cc1` (racemic) [Compound I-100], the pKi in assay [1] (setting [3]) is above 8.00; in assay [2] (setting [4]) it was 7.00 to 8.00.
Take `Cc1ccc(CNC(=O)N(Cc2ccc(F)cn2)C2CCNCC23CC3)cc1` (racemic) [Compound I-101]: the pKi in assay [1] (setting [3]) was above 8.00; in assay [2] (setting [4]), 7.00 to 8.00.
The like results for `COc1ccc(CNC(=O)N(Cc2cc(C)n(C)n2)C2CCN(C)CC23CC3)cc1` (racemic) [Compound I-104] were, in that order, above 8.00 and above 8.00.
With `Cc1ccc(CNC(=O)N(Cc2cc(C)n(C)n2)C2CCN(C)CC23CC3)cc1` (racemic) [Compound I-105], the pKi in assay [1] (setting [3]) and in assay [2] (setting [4]) was above 8.00 each time.
As for `CCCOc1ccc(CNC(=O)N(Cc2ccn(C)n2)C2CCNCC23CC3)cc1` (racemic) [Compound I-107], the results for the pKi in assay [1] (setting [3]) and in assay [2] (setting [4]) were above 8.00 and 7.00 to 8.00, respectively.
Turning to `CC(C)COc1ccc(CNC(=O)N(Cc2ccn(C)c2)[C@@H]2CCN(C)C[C@@H]2F)cc1` (racemic) [Compound I-108], the pKi in assay [1] (setting [3]) and in assay [2] (setting [4]) was above 8.00 each time.
For `CCCOc1ccc(CNC(=O)N(Cc2cc(C)n(C)n2)C2CCN(C)CC23CC3)cc1` (racemic) [Compound I-109], the pKi in assay [1] (setting [3]) and in assay [2] (setting [4]) was above 8.00 throughout.
As for `CN1CCC(N(Cc2ccn(C)n2)C(=O)NCc2ccc(OCC3CC3)cc2)C2(CC2)C1` (racemic) [Compound I-110], the pKi in assay [1] (setting [3]) and in assay [2] (setting [4]) was above 8.00 each time.
For `CN1CCC(N(Cc2ccn(C)n2)C(=O)NCc2ccc(OC(F)F)cc2)C2(CC2)C1` (racemic) [Compound I-111], the pKi in assay [1] (setting [3]) and in assay [2] (setting [4]) was above 8.00 in each case.
With `CC(C)COc1ccc(CNC(=O)N(Cc2ccc(F)cn2)C2CCN(C)C3(CC3)C2)cc1` (racemic) [Compound I-136], the results for the pKi in assay [1] (setting [5]) and in assay [2] (setting [6]) were 8.10 and 6.83, respectively.
Take `CC(C)COc1ccc(CNC(=O)N(Cc2ccc(Cl)cn2)C2CCN(C)CC2)cc1` [Compound I-009]: the pKi in assay [1] (setting [5]) was 9.54; in assay [2] (setting [6]), 8.10.
The like results for `CC(C)COc1ccc(CNC(=O)N(Cc2ccn(C)n2)C2CCN(C)CC2)cc1` [Compound I-021] were, in that order, 9.07 and 7.29.
In the case of `CC(C)COc1ccc(CNC(=O)N(Cc2cc3ccccc3cn2)C2CCN(C)CC2)cc1` [Compound I-037], the pKi was 9.18 in assay [1] (setting [5]) and 7.55 in assay [2] (setting [6]).
The corresponding values for `CC(C)COc1ccc(COC(=O)N(Cc2ccc(F)cn2)C2CCN(C)CC2)cc1` [Compound I-042] are 8.94 and 8.64.
The corresponding values for `COc1ccc(CNC(=O)N(Cc2ccc(F)cn2)C2CCN(C)CC2)cc1` [Compound I-043] are 8.60 and 7.25.
With `CC(C)COc1ccc(CC(=O)N(Cc2ccc(F)cn2)C2CCN(C)CC2)cc1` [Compound I-068], the values for the pKi in assay [1] (setting [5]) and in assay [2] (setting [6]) were 8.19 and 7.30, respectively.
`CC(C)COc1ccc(CNC(=O)N(Cc2ccc(F)c3cccnc23)C2CCN(C)CC2)cc1` [Compound I-070]: the pKi in assay [1] (setting [3]) is above 8.00; in assay [2] (setting [4]), 7.00 to 8.00.
`CC(C)COc1ccc(CNC(=O)N(Cc2ccc(F)c3ccoc23)C2CCN(C)CC2)cc1` [Compound I-071]: the pKi in assay [1] (setting [5]) is 7.88; in assay [2] (setting [6]), 7.22.
In the case of `CC(C)COc1ccc(CNC(=O)N(Cc2cc3c(cn2)OCCO3)C2CCN(C)CC2)cc1` [Compound I-072], the values for the pKi in assay [1] (setting [5]) and in assay [2] (setting [6]) were 6.66 and 6.21, respectively.
In the case of `CC(C)COc1ccc(CNC(=O)N(Cc2cn(C)c3cccnc23)C2CCN(C)CC2)cc1` [Compound I-074], the pKi in assay [1] (setting [3]) and in assay [2] (setting [4]) was 7.00 to 8.00 in each case.
As for `CN1CCC(N(Cc2ccc(F)cn2)C(=O)NCc2cccc(O)c2)CC1` [Compound I-075], the pKi is 6.89 in assay [1] (setting [5]) and 5.88 in assay [2] (setting [6]).
Turning to `CN1CCC(N(Cc2ccc(F)cn2)C(=O)NCc2ccccc2O)CC1` [Compound I-076], the pKi was 7.21 in assay [1] (setting [5]) and 6.58 in assay [2] (setting [6]).
As to `CC(C)COc1ccc(CNC(=O)N(Cc2ncc(O)cc2F)C2CCN(C)CC2)cc1` [Compound I-077], the values for the pKi in assay [1] (setting [3]) and in assay [2] (setting [4]) were 7.00 to 8.00 and below 7.00, respectively.
The like results for `Cc1cnc(CN(C(=O)NCc2ccc(OCC(C)C)cc2)C2CCN(C)CC2)cn1` [Compound I-078] were, in that order, 7.00 to 8.00 and below 7.00.
As for `CC(C)COc1ccc(CNC(=O)N(Cc2cn(C)c3ccccc23)C2CCN(C)CC2)cc1` [Compound I-079], the pKi in assay [1] (setting [3]) and in assay [2] (setting [4]) was below 7.00 in each case.
As for `CC(C)COc1ccc(CNC(=O)N(Cc2ncc(F)cc2O)C2CCN(C)CC2)cc1` [Compound I-080], the pKi in assay [1] (setting [3]) and in assay [2] (setting [4]) was 7.00 to 8.00 throughout.
Regarding `CC(C)COc1ccc(CNC(=O)N(Cc2ccc(F)c3cc[nH]c23)C2CCN(C)CC2)cc1` [Compound I-081], the pKi in assay [1] (setting [3]) and in assay [2] (setting [4]) was below 7.00 each time.
As for `CN1CCC(N(Cc2ccc(F)cn2)C(=O)NCc2ccc(Br)cc2)CC1` [Compound I-082], the pKi is 8.43 in assay [1] (setting [5]) and 7.54 in assay [2] (setting [6]).
With `C=Cc1ccc(CNC(=O)N(Cc2ccc(F)cn2)C2CCN(C)CC2)cc1` [Compound I-083], the figures for the pKi in assay [1] (setting [3]) and in assay [2] (setting [4]) were above 8.00 and 7.00 to 8.00, respectively.
Take `CN1CCC(N(Cc2ccc(F)cn2)C(=O)NCc2ccc(Cl)cc2)CC1` [Compound I-084]: the pKi was 8.25 in assay [1] (setting [5]) and 7.19 in assay [2] (setting [6]).
For `CC(C)COc1ccc(CNC(=O)N(Cc2ccc(F)cn2)[C@@H]2CCN(C)C[C@@H]2F)cc1` [Compound I-085], the pKi in assay [1] (setting [5]) was 7.62; in assay [2] (setting [6]), 7.02.
Turning to `CC(C)COc1ccc(CNC(=O)N(Cc2ccc(F)cn2)C2CCN(C)C(CO)C2)cc1` (stereo not shown) [Compound I-089], the pKi in assay [1] (setting [3]) is above 8.00; in assay [2] (setting [4]), 7.00 to 8.00.
In the case of `CN1CCC(N(Cc2ccc(F)cn2)C(=O)NCc2ccc(OCC(C)(F)F)cc2)CC1` [Compound I-092], the pKi in assay [1] (setting [3]) and in assay [2] (setting [4]) was above 8.00 each time.
Turning to `CN1CCC(N(Cc2ccc(F)cn2)C(=O)NCc2ccc(OCC(F)(F)F)cc2)CC1` [Compound I-095], the pKi in assay [1] (setting [3]) and in assay [2] (setting [4]) was above 8.00 throughout.
As to `Cc1cc(CN(C(=O)NCc2ccc(OCC(C)C)cc2)C2CCN(C)CC2)nn1C` [Compound I-096], the pKi in assay [1] (setting [3]) was above 8.00; in assay [2] (setting [4]), 7.00 to 8.00.
The like results for `C[C@H](F)COc1ccc(CNC(=O)N(Cc2ccc(F)cn2)C2CCN(C)CC2)cc1` [Compound I-097] were, in that order, above 8.00 and 7.00 to 8.00.
For the molecule `C[C@@H](F)COc1ccc(CNC(=O)N(Cc2ccc(F)cn2)C2CCN(C)CC2)cc1` [Compound I-098], the pKi was above 8.00 in assay [1] (setting [3]) and 7.00 to 8.00 in assay [2] (setting [4]).
As to `CC(C)COc1ccc(CNC(=O)N(Cc2ccc(F)cn2)[C@H]2CCN(C)C[C@H]2F)cc1` [Compound I-103], the pKi in assay [1] (setting [3]) and in assay [2] (setting [4]) was above 8.00 in each case.
With `COc1ccc(COC(=O)N(Cc2ccn(C)c2)C2CCN(C)CC2)cc1` [Compound I-106], the pKi in assay [1] (setting [3]) and in assay [2] (setting [4]) was above 8.00 each time.
